The source made the active and inactive calls.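 How the source made its calls: active means AC50 no more than ten times the top concentration tested, that is within one log above it; inconclusive means flat curve fit with activity between 30% and 70%, or invalid poor fit; inactive means AC50 beyond ten times the top tested dose.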
Each molecule was assayed on S. cerevisiae Mot1-301 ts growth rescue, BacTiter-Glo ATP luminescence (assay: restored Mot1-301 yeast growth at 38.5C – whole organism, S. cerevisiae, Mot1-301 ts mutant, luminescence, dose retest, SUMOylation pathway inhibitor project, confirmation (AID 463204);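 further: growth at restrictive 38.5 degrees C of Mot1-301 OY566 strain; actives raise luminescence by restoring growth of the ts mutant at high temperature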).
`O=C(NNC(=O)c1ccccc1O)c1ccco1` was tested, and the AC50 was > 42 µM (inactive).
Molecule `CC(=O)N(C(C)=O)c1c(C#N)c(C)n(-c2ccccc2)c1C(=O)c1ccccc1` has an AC50 of 20.4 µM.
In the case of `COc1ccc(/C=C/C(=O)N2CCC(C(N)=O)CC2)cc1S(=O)(=O)N1CCOCC1`, the AC50 is reported as > 42 µM (inactive).
In the case of `O=C(O)Cc1sc(Nc2ccccc2)nc1-c1cccs1`, the AC50 is reported as > 42 µM (inactive).
In the case of `COc1cccc2[nH]c(=O)c(-c3ccccc3)cc12`, the AC50 is reported as > 42 µM (inactive).
`C/C(=N/Nc1ccc(F)cc1)c1ccc(Cl)s1` was tested, and the AC50 was > 42 µM (inactive).
In the case of `Cc1cc2c(C)ccc(C)c2nc1SCC(=O)c1cccs1`, the AC50 is reported as > 42 µM (inactive).
`O=C1CCCN1CCC(=O)N1CCCC(N2CCN(c3ccccc3F)CC2)C1` (configuration not stated) was tested, and the AC50 was > 42 µM (inactive).
For `O=C(Cn1cnc2ccccc2c1=O)c1ccc(OC(F)F)cc1`, the AC50 was > 42 µM (inactive).
`O=c1oc2cc(S(=O)(=O)NCCCO)ccc2c2ccc(S(=O)(=O)NCCCO)cc12` was tested, and the AC50 was > 42 µM (inactive).
In the case of `c1ccc2[nH]c(CSc3nccs3)nc2c1`, the AC50 is reported as > 42 µM (inactive).
For `Cc1cc(C(=O)N/N=C/c2ccc3c(c2)OCO3)c2ccccc2n1`, the AC50 was > 42 µM (inactive).
With `Cc1cnc(=O)[nH]c1SCC(=O)c1ccc(F)cc1` the AC50 was > 42 µM (inactive).
With `COc1cccc(NC(=S)NC(=O)c2cncc(Br)c2)c1` the AC50 was > 42 µM (inactive).
With `COC(=O)c1cc2c(s1)-c1ccc(OC)cc1CC2` the AC50 was > 42 µM (inactive).
`CCCCn1c(=O)[nH]c(=O)c2c1nc(COc1ccc(C#N)cc1)n2CCC` was tested, and the AC50 was > 42 µM (inactive).
`CCCCNC(=O)C1C2C=CC3(CN(Cc4ccc(C)cc4)C(=O)C13)O2` (configuration not stated) was tested, and the AC50 was > 42 µM (inactive).
In the case of `Nc1cc(=O)[nH]c(=O)n1CCc1ccccc1`, the AC50 is reported as > 42 µM (inactive).
For `O=S(=O)(c1ccccc1)N1CCN(c2nc3ccccc3s2)CC1`, the AC50 was > 42 µM (inactive).
For `O=C(c1ccc(Br)cc1)C(CN1CCOCC1)c1ccccc1` (configuration not stated), the AC50 was 0.65 µM.
`CS(=O)(=O)N(CC(=O)N1CCCCCC1)Cc1ccc(Cl)cc1` was tested, and the AC50 was > 42 µM (inactive).
For `COc1ccc(Cn2nnnc2CN2CCN(c3ccc(OC)cc3)CC2)cc1`, the AC50 was > 42 µM (inactive).
For `NN1C(=O)NC(c2ccccc2)(c2ccccc2)C1=O`, the AC50 was > 42 µM (inactive).
In the case of `CCOc1ccc(C(=O)Nc2ccc(CN3CCOCC3)cc2)cc1Br`, the AC50 is reported as > 21 µM (inactive).
In the case of `NC(=O)c1cccc2cc3ccccc3cc12`, the AC50 is reported as > 42 µM (inactive).
In the case of `COc1ccc(C2CC3(CC(C)(C)NC(=S)N3)Oc3cc(O)cc(C)c32)cc1` (configuration not stated), the AC50 is reported as > 42 µM (inactive).
For `O=C(O)c1cccc(N2C(=O)C3C4C=CC(C4=C(c4ccccc4)c4ccccc4)C3C2=O)c1` (configuration not stated), the AC50 was > 42 µM (inactive).
For `CCOC(=O)c1ccccc1NC(=O)C1CC(=O)N(C2CCCCC2)C1` (configuration not stated), the AC50 was > 42 µM (inactive).
`CCOC(=O)N1CCC(NS(=O)(=O)c2ccc(C)c(Cl)c2)CC1` was tested, and the AC50 was > 42 µM (inactive).
For `CCOc1ccc(-c2nnc(SCC(=O)N3CCCC3)o2)cc1`, the AC50 was > 42 µM (inactive).
`Cc1cccc(C(=O)NCC(=O)N2CCN(c3ccc(Cl)cc3)CC2)c1` was tested, and the AC50 was > 42 µM (inactive).
With `COc1ccc(/C=C2\SC(=S)N(CCCC(=O)Nc3cc(C)on3)C2=O)cc1OC` the AC50 was > 42 µM (inactive).
With `Nc1cc(C(=O)OCC(=O)N2CCOCC2)ccc1Cl` the AC50 was > 42 µM (inactive).
With `COC(=O)c1sccc1NC(=O)CC1C(=O)NCCN1C(=O)Nc1ccc(F)cc1F` (configuration not stated) the AC50 was > 42 µM (inactive).
`O=C(Nc1nccs1)C1CCN(S(=O)(=O)c2ccc(Cl)c(C(F)(F)F)c2)CC1` was tested, and the AC50 was > 42 µM (inactive).
In the case of `CCOc1ccc(S(=O)(=O)N2CCN(CC(O)COc3cccc([N+](=O)[O-])c3)CC2)cc1` (configuration not stated), the AC50 is reported as > 42 µM (inactive).
`CCCCCC(=O)NNC1=NCC(Cc2cccc(Cl)c2)S1` (configuration not stated) was tested, and the AC50 was > 42 µM (inactive).
`Cc1ccccc1-c1nnc(CN2CCC(C)CC2)o1` was tested, and the AC50 was > 42 µM (inactive).
`COc1cc(C(=O)Nc2sc3c(c2C(=O)O)CCC(C)C3)cc(OC)c1OC` (configuration not stated) was tested, and the AC50 was > 42 µM (inactive).
For `Cc1ccc(S(=O)(=O)Nc2n[nH]nc2C(=O)NC2CCCCC2)cc1`, the AC50 was > 42 µM (inactive).
`Fc1ccc(-c2n[nH]c(=S)n2CC2CCCO2)cc1` (configuration not stated) was tested, and the AC50 was > 42 µM (inactive).
With `Cc1cc(C(F)F)n2ncc(C(=O)NCCc3ccc(Cl)cc3)c2n1` the AC50 was > 42 µM (inactive).

From PubChem BioAssay AID463204 (Broad Institute, 2010)
